Assays:
[1] = molecular target: Prostaglandin E2 receptor EP4 subtype (Homo sapiens, UniProt P35408); experiment: hEP4 cAMP Assay
Description: Plate is pre-incubated 45 minutes at room temperature. Subsequently, 2.5 microliters of PGE2 (final conc. 6 nM) are transferred into the assay plate. Plate is incubated 30 minutes at room temperature.

[2] = molecular target: Prostaglandin E2 receptor EP2 subtype (Homo sapiens, UniProt P43116); experiment: hEP2 cAMP Assay
Sequence of Prostaglandin E2 receptor EP2 subtype (P43116 whole entry): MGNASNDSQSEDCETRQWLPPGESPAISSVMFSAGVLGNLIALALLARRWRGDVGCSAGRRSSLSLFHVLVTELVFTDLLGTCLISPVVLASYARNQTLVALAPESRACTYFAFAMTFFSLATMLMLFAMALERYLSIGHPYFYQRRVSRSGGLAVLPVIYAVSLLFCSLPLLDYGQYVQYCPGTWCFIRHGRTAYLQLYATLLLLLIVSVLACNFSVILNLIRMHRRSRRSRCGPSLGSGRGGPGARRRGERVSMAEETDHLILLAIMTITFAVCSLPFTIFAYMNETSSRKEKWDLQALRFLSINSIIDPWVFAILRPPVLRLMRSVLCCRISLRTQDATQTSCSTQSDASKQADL
Description: Plate is pre-incubated 45 minutes at room temperature. […] Plate is incubated 30 minutes at room temperature. […] For each compound concentration the percentage of cAMP compared to DMSO control value as average±STDEV (each concentration is measured in duplicate) is calculated.

Sequence of Prostaglandin E2 receptor EP4 subtype (P35408 whole entry): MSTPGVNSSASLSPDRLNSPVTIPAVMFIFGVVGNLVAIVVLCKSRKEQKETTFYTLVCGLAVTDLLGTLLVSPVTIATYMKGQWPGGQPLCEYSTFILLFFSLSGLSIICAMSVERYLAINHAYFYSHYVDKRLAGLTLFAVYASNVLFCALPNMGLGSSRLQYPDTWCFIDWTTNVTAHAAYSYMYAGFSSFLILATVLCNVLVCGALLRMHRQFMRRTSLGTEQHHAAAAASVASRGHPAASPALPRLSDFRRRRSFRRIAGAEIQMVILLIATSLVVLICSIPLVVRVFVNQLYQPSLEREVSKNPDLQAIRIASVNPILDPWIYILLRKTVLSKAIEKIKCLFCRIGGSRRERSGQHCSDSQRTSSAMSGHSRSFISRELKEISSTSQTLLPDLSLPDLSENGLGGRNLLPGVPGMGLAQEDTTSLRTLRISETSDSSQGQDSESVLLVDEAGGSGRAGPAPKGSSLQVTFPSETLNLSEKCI

| IC50 [1] | IC50 [2] | SMILES |
| --- | --- | --- |
| 697 nM | 41 nM | Cc1ccc(F)c2c1cc(C)n2CCNc1cc(-c2ccc3c(c2)CNC3=O)ncn1 [US12011444, Example 65] |
| 786 nM | 38 nM | COc1ccc(F)c2c1cc(C)n2CCNc1cc(-c2ccc(C(=O)O)c(N)c2)ncn1 [US12011444, Example 214] |
| 136 nM | 68 nM | COc1ccc(F)c2c1cc(C)n2CCNc1cc(-c2ccc(C(=O)O)c(C(C)(C)C)c2)ncn1 [US12011444, Example 535] |
| 247 nM | 4 nM | Cc1cc(F)cc2c1cc(C)n2CCNc1cc(-c2ccc(C(=O)O)c(NCC(F)(F)F)c2)ncn1 [US12011444, Example 559] |
| 558 nM | 211 nM | COc1cc(F)c(F)c2c1cc(C)n2CCNc1cc(-c2ccc3oc(C)nc3c2)ncn1 [US12011444, Example 689] |
| 783 nM | 45 nM | Cc1cc(F)cc2c1cc(C)n2CCNc1cc(-c2cccc(-n3cccn3)c2)ncn1 [US12011444, Example 729] |
| 80 nM | 57 nM | CCOc1cc(-c2cc(NCCn3c(C)cc4c(OC)ccc(F)c43)ncn2)ccc1C(=O)NOCc1ccccc1 [US12011444, Example 766] |
| 259 nM | 11 nM | CCOc1cc(-c2cc(NCCn3c(C)cc4c(OC)ccc(F)c43)ncn2)ccc1C(=O)NOCCO [US12011444, Example 769] |
| 310 nM | 19 nM | CCOc1cc(-c2cc(NCCn3c(C)cc4c(C)ccc(F)c43)ncn2)ccc1C(=O)NOCCO [US12011444, Example 771] |
| 139 nM | 20 nM | COc1cc(F)cc2c1cc(C)n2CCNc1cc(-c2cc(O)cs2)ncn1 [US12011444, Example 801] |
